Laboratory results taken from patent publication US7553496B2, “VEGF-A as an inhibitor of angiogenesis and methods of using same” (University of Kentucky Research Foundation, priority 2004, dated 2009).
“Also recorded” adds a separate entry of the source.

Experiments:
[1] = test system: choroidal endothelial cells (CEC); experiment: Cell cycle distribution of CEC after laser injury (flow cytometry, propidium iodide); conditions: mouse, in vivo
Procedure: Flow cytometry. Single cell suspensions isolated from mouse RPE/choroids via collagenase D (20 U/ml; Roche Diagnostics) treatment were incubated in Fc block (0.5 mg/ml; BD Pharmingen) for 15 min on ice. Rabbit antibody to mouse VEGFR-1 (1:250; Santa Cruz) coupled with Cy5-donkey antibody to rabbit IgG Ab (1:250) and Phycoerythrin-conjugated rat antibody to mouse VEGFR-2 (1:250; eBioscience) were used to quantitate cell surface receptor expression. Macrophages defined as F4/80^+CD11c^− cells, were gated by rat antibody to mouse Cy5-F4/80 (1:30; Serotec) and hamster antibody to mouse FITC-CD11c (1:100; Serotec), CEC by FITC-conjugated rat antibody to mouse CD31 (1:250; BD Biosciences), and RPE cells by FITC-conjugated mouse antibody to human pan-cytokeratin (1:250; Sigma-Aldrich) staining following fixation with 4% paraformaldehyde and permeabilization with 1% Triton X-100 (Sigma Aldrich) and subjected to FACS analysis (FACSCalibur, BD Biosciences). DNA content was analyzed following incubation with propidium iodide (0.05 mg/ml; Molecular Probes) containing 0.1% Triton X-100 and RNase A (0.1 mg/ml; Roche).

Ccl-2 = Ccl-2 levels in RPE and choroid after laser injury (ELISA); format: in vivo, mouse
laser-induced CNV = experiment: Laser-induced choroidal neovascularization (CNV) volume, confocal microscopy; format: in vivo, mouse; conditions: for effect on VEGF-A-induced suppression of CNV: given with VEGF-A164 after laser injury
VEGF-A = conditions: mouse, in vivo
c-kit = c-kit (Homo sapiens, UniProt P10721); conditions: cited from earlier work
c-kit, sequence (P10721 26-976): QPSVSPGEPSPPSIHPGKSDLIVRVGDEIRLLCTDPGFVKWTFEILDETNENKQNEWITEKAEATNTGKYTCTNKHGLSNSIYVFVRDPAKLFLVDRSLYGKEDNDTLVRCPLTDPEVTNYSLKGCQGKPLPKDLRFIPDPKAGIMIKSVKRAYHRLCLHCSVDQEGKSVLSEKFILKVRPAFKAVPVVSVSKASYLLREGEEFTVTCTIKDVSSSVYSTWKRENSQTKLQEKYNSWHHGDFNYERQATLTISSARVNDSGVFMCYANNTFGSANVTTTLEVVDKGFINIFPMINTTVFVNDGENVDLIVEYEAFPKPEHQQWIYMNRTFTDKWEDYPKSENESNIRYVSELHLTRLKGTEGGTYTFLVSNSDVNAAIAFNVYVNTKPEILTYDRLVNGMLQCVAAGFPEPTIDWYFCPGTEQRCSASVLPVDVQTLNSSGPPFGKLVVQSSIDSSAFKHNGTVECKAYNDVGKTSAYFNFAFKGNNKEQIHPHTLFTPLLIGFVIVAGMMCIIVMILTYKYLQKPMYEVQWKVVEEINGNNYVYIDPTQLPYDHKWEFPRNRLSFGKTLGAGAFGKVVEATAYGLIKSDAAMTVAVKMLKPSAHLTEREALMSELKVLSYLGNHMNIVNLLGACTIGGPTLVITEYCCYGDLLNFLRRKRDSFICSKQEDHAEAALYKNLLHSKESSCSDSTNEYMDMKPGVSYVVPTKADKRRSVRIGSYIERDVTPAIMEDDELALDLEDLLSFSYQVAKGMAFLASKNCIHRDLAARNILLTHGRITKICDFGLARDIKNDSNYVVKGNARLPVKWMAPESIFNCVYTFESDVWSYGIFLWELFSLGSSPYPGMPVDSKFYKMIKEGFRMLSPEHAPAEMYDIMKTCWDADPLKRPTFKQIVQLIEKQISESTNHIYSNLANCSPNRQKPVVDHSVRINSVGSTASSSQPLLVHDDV

[2] = test system: platelet derived growth factor receptor (PDGFR); conditions: cited from earlier work
flt3 = conditions: read-out: IC50 flt3; cited from earlier work
VEGFR-1 = VEGFR-1 (Homo sapiens, UniProt P17948); conditions: cited from earlier work
VEGFR-1, sequence (P17948 27-1338, species assumed): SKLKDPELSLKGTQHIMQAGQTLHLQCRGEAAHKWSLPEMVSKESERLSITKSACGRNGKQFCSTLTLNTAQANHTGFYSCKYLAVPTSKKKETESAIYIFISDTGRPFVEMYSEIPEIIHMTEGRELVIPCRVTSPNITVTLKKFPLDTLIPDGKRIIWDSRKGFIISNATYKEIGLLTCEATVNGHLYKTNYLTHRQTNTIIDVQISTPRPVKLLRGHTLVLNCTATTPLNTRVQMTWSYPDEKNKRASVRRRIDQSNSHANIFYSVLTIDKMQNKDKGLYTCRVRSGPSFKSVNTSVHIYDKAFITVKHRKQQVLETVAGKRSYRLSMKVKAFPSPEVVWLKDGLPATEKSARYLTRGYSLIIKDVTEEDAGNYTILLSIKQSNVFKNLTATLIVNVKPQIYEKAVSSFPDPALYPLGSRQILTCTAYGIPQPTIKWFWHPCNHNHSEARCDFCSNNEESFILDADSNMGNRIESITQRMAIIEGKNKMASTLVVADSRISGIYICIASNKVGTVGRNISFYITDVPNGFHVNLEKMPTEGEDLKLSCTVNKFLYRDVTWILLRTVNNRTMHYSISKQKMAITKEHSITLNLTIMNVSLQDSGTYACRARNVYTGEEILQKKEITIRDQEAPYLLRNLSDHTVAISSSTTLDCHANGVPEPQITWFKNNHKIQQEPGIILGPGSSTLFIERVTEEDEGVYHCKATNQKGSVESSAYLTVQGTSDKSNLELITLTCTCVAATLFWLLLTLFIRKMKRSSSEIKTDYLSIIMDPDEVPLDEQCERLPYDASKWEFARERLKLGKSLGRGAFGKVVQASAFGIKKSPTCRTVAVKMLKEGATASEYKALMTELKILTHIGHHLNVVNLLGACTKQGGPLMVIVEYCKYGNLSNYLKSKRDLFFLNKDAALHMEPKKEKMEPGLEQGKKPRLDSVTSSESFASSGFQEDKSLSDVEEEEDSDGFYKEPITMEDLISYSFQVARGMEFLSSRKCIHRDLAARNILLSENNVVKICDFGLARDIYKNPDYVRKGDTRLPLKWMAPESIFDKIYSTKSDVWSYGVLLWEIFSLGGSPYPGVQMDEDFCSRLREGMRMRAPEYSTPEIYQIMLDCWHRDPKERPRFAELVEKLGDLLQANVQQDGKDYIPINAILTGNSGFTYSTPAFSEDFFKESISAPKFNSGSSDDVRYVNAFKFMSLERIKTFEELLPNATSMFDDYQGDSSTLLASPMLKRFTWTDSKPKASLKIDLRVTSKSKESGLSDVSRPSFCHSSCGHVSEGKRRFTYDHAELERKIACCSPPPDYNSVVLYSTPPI

choroidal macrophages = experiment: Choroidal macrophage recruitment after laser injury (flow cytometry); format: in vivo, mouse
Procedure: Drug treatments. VEGF-A164 (4-12 ng), VEGF-A120 (2.7-27 ng), PLGF-1 (12.5-1,250 ng), mouse PLGF-2 (165-1,650 ng), mouse Ccl-2 (0.55 ng), neutralizing goat antibodies to mouse VEGF-A (5-20 ng), mouse VEGFR-1 (6-18 μg), mouse VEGFR-2 (25-250 ng), or rat NP-1 (200-500 ng; all R&D Systems), recombinant human SPARC (100-300 ng; purified in the laboratory of E. H. Sage) or neutralizing mouse antibody to human SPARC (4-12 μg; purified in the laboratory R. W. Brekken, University of Texas), neutralizing rabbit antibody to rat NP-2 (200-500 ng; gifts of D. D. Ginty, Johns Hopkins University and S. Niclou, Netherlands Institute for Brain Research (Shearer, M. C. et al. The astrocyte/meningeal cell interface is a barrier to neurite outgrowth which can be overcome by manipulation of inhibitory molecules or axonal signalling pathways. […]
Flow cytometry. […] Rabbit antibody to mouse VEGFR-1 (1:250; Santa Cruz) coupled with Cy5-donkey antibody to rabbit IgG Ab (1:250) and Phycoerythrin-conjugated rat antibody to mouse VEGFR-2 (1:250; eBioscience) were used to quantitate cell surface receptor expression. […] DNA content was analyzed following incubation with propidium iodide (0.05 mg/ml; Molecular Probes) containing 0.1% Triton X-100 and RNase A (0.1 mg/ml; Roche).

[3] = test system: bone marrow derived endothelial cells (BMDECs); experiment: Bone marrow derived endothelial cell incorporation in GFP chimeric mice (flow cytometry); format: in vivo, mouse; conditions: 0.55 ng
Excerpt: We tested the effect of VEGF-A164 injection one day after laser injury in GFP chimeric mice 8 weeks following bone marrow transplantation in mice with engraftment exceeding 90%. In the RPE/choroid, GFP^+ cells were identified only at the site of laser injury and the immediate vicinity (data not shown). The bulk (>60%) of GFP^+ cells in the RPE/choroid following injury expressed either CD11b or F4/80, markers of monocytic lineage, while nearly all (>95%) CD11b^+ and F4/80^+ cells expressed GFP. […] The vast majority (>90%) of GFP^+CD31^+ cells, both in PBS- and VEGF-A164-treated eyes, also expressed CD11b or F4/80.
Flow cytometry. Single cell suspensions isolated from mouse RPE/choroids via collagenase D (20 U/ml; Roche Diagnostics) treatment were incubated in Fc block (0.5 mg/ml; BD Pharmingen) for 15 min on ice. Rabbit antibody to mouse VEGFR-1 (1:250; Santa Cruz) coupled with Cy5-donkey antibody to rabbit IgG Ab (1:250) and Phycoerythrin-conjugated rat antibody to mouse VEGFR-2 (1:250; eBioscience) were used to quantitate cell surface receptor expression. […] DNA content was analyzed following incubation with propidium iodide (0.05 mg/ml; Molecular Probes) containing 0.1% Triton X-100 and RNase A (0.1 mg/ml; Roche).

[4] = agent alone, intravitreous, immediately or one day after laser injury, wild-type mice, vs PBS

Molecule: C=CC1=C(C)c2cc3[n-]c(cc4[n-]c(cc5nc(cc1n2)C(C)=C5C=C)c(C)c4CCC(=O)O)c(CCC(=O)O)c3C.[Zn+2] [ZnPP, zinc protoporphyrin IX]
- effect on VEGF-A-induced G0/G1 arrest of CEC [1]: reversed
- effect on VEGF-A-induced suppression of Ccl-2 (Ccl-2): abolished
- effect on VEGF-A-induced suppression of CNV (laser-induced CNV): abolished

Molecule: [Cl-].[Cl-].[Co+2] [CoCl2]
- aggregate VEGF-A exposure (area under the curve) higher than after laser injury alone (VEGF-A): 52%
- peak VEGF-A in RPE and choroid relative to maximal level following laser injury alone (VEGF-A): less than double

Molecule: OO [H2O2]
- volume of CNV (laser-induced CNV; [4]): decreased the volume of CNV; also recorded: inhibited

Molecule: COC(=O)[C@@H](N)CCCNC(=N)N[N+](=O)[O-] [L-NAME, N^ω-nitro-L-arginine methyl ester]
- effect on VEGF-A-induced suppression of CNV (laser-induced CNV): did not reverse; also recorded: not affected

Molecule: O.O.O.O.O.O.O.O.O.O=C([O-])[C@@H]1[O][Sb]2([O-])([O][Sb]34([OH])[O][C@H]([C@H](O)CO)[C@H]([O]3)[C@H](C(=O)[O-])[O]4)[O][C@H]([C@H](O)CO)[C@@H]1[O]2.[Na+].[Na+].[Na+] [sodium stibogluconate]
- effect on VEGF-A-induced suppression of CNV (laser-induced CNV): abolished

Molecule: FGF-2: basic fibroblast growth factor, another potent angiogenic cytokine
- volume of CNV (laser-induced CNV; [4]): did not evoke similar responses; also recorded: minor increases

Molecule: Cc1occc(=O)c1[O-].Cc1occc(=O)c1[O-].[O]=[V+2] [BMOV, bis(maltolato)oxovanadium(IV)]
- effect on VEGF-A-induced suppression of CNV (laser-induced CNV): abrogated

Molecule: Cc1cc2ncc(-c3ccccc3)nc2cc1C [AG1295, 6,7-dimethyl-2-phenylquinoxaline]
- IC50 (c-kit): 1800 nM
- IC50 [2]: 400 nM
- effect on VEGF-A-induced suppression of CNV (laser-induced CNV): Neither AG1295 (15 ng) nor PHA665752 (0.4 ng) blocked
- IC50 (flt3): 500 nM

Molecule: OB(O)c1cccc(NCc2cc(O)ccc2O)c1 [DBAPBA]
- IC50 (VEGFR-1): 40 µM
- effect on VEGF-A-induced suppression of Ccl-2 (Ccl-2): blocked
- effect on VEGF-A-induced suppression of monocyte recruitment (choroidal macrophages): blocked
- effect on VEGF-A-induced suppression of CNV (laser-induced CNV): blocked; also recorded: reversed by DBAPBA in a dose-dependent fashion

Molecule: CC(C)c1cc(/C=C(\C#N)C(=O)NCCCc2ccccc2)cc(C(C)C)c1O [SU1498, (E)-3-(3,5-diisopropyl-4-hydroxyphenyl)-2-[(3-phenyl-n-propyl)amino-carbonyl]acrylonitrile]
- effect on VEGF-E-induced increase in CNV (laser-induced CNV; after laser injury): blocked

Molecule: Ccl-2: exogenous recombinant Ccl-2, monocyte chemoattractant
- effect on VEGF-A164 reduction in vasculogenesis [3]: abrogated
- effect on clodronate liposome reduction of BMDEC incorporation [3]: did not abrogate
- effect on CNV inhibited by VEGF-A antibody (laser-induced CNV; 0.55 ng): restored the CNV
- volume of CNV (laser-induced CNV; Ccl2−/− or Ccr2−/− mice): restores CNV
- volume of CNV (laser-induced CNV; Ccl2−/− or Ccr2−/− mice, listed as Recombinant Ccl-2): restored CNV
- effect on VEGF-A-induced suppression of CNV (laser-induced CNV): abrogates
- effect on VEGF-A-induced suppression of CNV (laser-induced CNV; listed as recombinant Ccl-2): abrogated

Molecule: Cc1cc(C)c(C=C2C(=O)Nc3ccccc32)[nH]1 [SU5416, 3-((2,4-dimethylpyrrol-5-yl)methylidene]-indolin-2-one]
- effect on VEGF-A-induced suppression of Ccl-2 (Ccl-2): blocked
- effect on VEGF-A-induced suppression of monocyte recruitment (choroidal macrophages): blocked
- effect on VEGF-A-induced suppression of CNV (laser-induced CNV): blocked; also recorded: abrogates

Molecule: Cc1[nH]c(/C=C2\C(=O)Nc3ccc(S(=O)(=O)Cc4c(Cl)cccc4Cl)cc32)c(C)c1C(=O)N1CCC[C@@H]1CN1CCCC1 [PHA665752]
- effect on VEGF-A-induced suppression of CNV (laser-induced CNV): Neither AG1295 (15 ng) nor PHA665752 (0.4 ng) blocked

B1: SPARC: recombinant human SPARC, secreted protein, acidic, rich in cysteine (protein, UniProt P09486 18-303, looked up)
SPARC: APQQEALPDETEVVEETVAEVTEVSVGANPVQVEVGEFDDGAEETEEEVVAENPCQNHHCKHGKVCELDENNTPMCVCQDPTSCPAPIGEFEKVCSNDNKTFDSSCHFFATKCTLEGTKKGHKLHLDYIGPCKYIPPCLDSELTEFPLRMRDWLKNVLVTLYERDEDNNLLTEKQKLRVKKIHENEKRLEAGDHPVELLARDFEKNYNMYIFPVHWQFGQLDQHPIDGYLSHTELAPLRAPLIPMEHCTTRFFETCDLDNDKYIALDEWAGCFGIKQKDIDKDLVI
- inhibition of VEGFR-1 kinase activity (VEGFR-1; in vitro, literature): inhibits the kinase activity of VEGFR-1
- volume of CNV (laser-induced CNV; [4]): did not alter CNV
- effect on VEGF-A-induced suppression of CNV (laser-induced CNV): abolished
- effect on VEGF-A-induced suppression of CNV (laser-induced CNV; listed as recombinant human SPARC): dose-dependently abolished
